{"source": "patent US7629004B2", "about": "“Composition and process for removing and preventing mildew and fungal growth” (priority 2005, dated 2009)", "origin": "cited, not measured here", "tested_on": "fungi", "settings": "fungal contamination of aircraft interior surfaces"}
{"smiles": "CC(C)O", "note": "[isopropyl alcohol]", "values": [{"measurement": "Effectiveness of approved military cleaning procedure", "value": "ineffective"}]}
